From patent US6432430B1, “Exfoliating scrub with niacinamide” (priority 2000, dated 2002)

System: acne
Assay: topical use of the exfoliating scrub on acne, washed off immediately after use
Assay type: in vivo
Conditions: niacinamide in exfoliating cream, cream immediately removed
Text: The cream is applied to the affected area, typically the face, and is used in the same manner as other exfoliating scrubs by massaging the cream into the skin. The abrasive agent acts to remove dead skin cells and the niacinamide is brought into direct contact with the affected areas. The cream is then removed by washing the area with water, and if desired, a mild soap. […] The frequency with which the exfoliating scrub is applied depends upon several factors, including the severity of the skin condition, and the user's skin type and sensitivity. Patients having oily skin may use the scrub as often as once to twice per day. Patients having dry skin or sensitive skin generally will use the scrub less often. The precise frequency is determined on a case by case basis influenced by the actual results achieved. As described above, the cream is topically applied to the area to be treated and is gently massaged into the skin. The cream is then immediately removed, preferably with warm water. The skin may beneficially be thoroughly cleansed prior to application of the cream of the present invention. In all cases the scrub is washed from the skin immediately after use.

NC(=O)c1cccnc1 [niacinamide]
therapeutic effect on acne: beneficial therapeutic effect on acne
